Patent US20060270643A1, “Hyfroxyflutamide induced pathways related to androgen receptor negative prostate cancer cells” (priority 2002, published 2006)

Legend:
cyclin D1 = experiment: Western blot of cyclin D1 and cell cycle related gene products in DU145 cells; format: cell-based, human
Description: (§1) 11. […] (A) DU145 cells were treated with HF (1 μM), or EGF (10 ng/ml), or ethanol vehicle for 12 hours after the serum starvation. Cells were lysed and blotted with anti-cyclin D1 antibody. (B) DU145 cells were serum starved for 24 hours and then co-transfected DN Ras or DN Raf together with […] Luc reporter with SuperFect (Qiagen). After 4 hours, the medium was changed to normal medium (10% serum) for 18 hours and then changed to serum starvation condition for another 24 hours and then treated with HF, EGF, or ethanol vehicle control. Cells were lysed for luciferase activity analysis.

[1] = system: MAP kinase in LNCaP cells; experiment: Immunoblot of phospho-ERK1/2 in LNCaP cells; format: cell-based, human; details: LNCaP cells (data not shown)
[2] = system: association between Ras and Raf; experiment: Ras-Raf immunoprecipitation assay in DU145 cells; format: cell-based, human; details: lysates of treated DU145 cells; 1 μM HF, 10 ng/ml EGF, 1 μM 9-cis retinoic acid
Description: 8. […] (A) DU145 cells were treated with ethanol (lane 1), 10 ng/ml EGF (lane 2), 1 μM 9-cis retinoic acid (lane 3), and 1 μM HF (lane 4) after 24 hour serum starvation. Cells were lysed and 300 μg of total protein were immunoprecipitated with anti-Ras antibody, pulled-down by a protein A/G agarose beads, and detected with an anti-Raf antibody. (B) DU145 cells were transfected with pCDNA3.1 or pCDNA3.1-Ras N17 as indicated. After 24 hours serum starvation, the cells were treated with different ligands for 20 min, and then harvested. Western blots were performed with antibodies against phosphoERK1/2 and ERK1/2. The density of phospho-ERK1/2 shown as Optical Density (OD) were determined by the Versa Doc Imaging System (Bio-Rad) and quantified by Quantity One software.
200. Serum-stared and treated DU145 cells were lysed with RIPA buffer for 30 min on ice. Lysates were then centrifuiged at 12,000 g for 10 min at 4° C. and protein concentrations were determined by the Bradford assay. 500 μg of cell lysates were incubated for 4 hours with either anti-Ras or anti-EGFR antibody (1/100, Santa Cruz Biotechnology) to the protein-antibody mixture and then added in 20 μl of protein A/G plus-agarose (Santa Cruz Biotechnology) for another 4 hours incubation with constant rotation. The immunoprecipitates were washed four times with cold PBS, resolved by SDS-PAGE, and immunoblotted by anti-Raf-1 antibody, or anti-phospho-tyrosine monoclonal antibody (Oncogene Research, Calbiochem, La Jolla, Calif.). The results were visualized by chemiluminescence.

EGFR = target: T1, EGFR (Homo sapiens, UniProt P00533); experiment: EGFR immunoprecipitation and anti-phosphotyrosine immunoblot in DU145 cells; format: cell-based; details: 1 μM HF, 20 min
T1 construct: endogenous in cells; host or cells: DU145
T1 sequence (P00533 25-1210): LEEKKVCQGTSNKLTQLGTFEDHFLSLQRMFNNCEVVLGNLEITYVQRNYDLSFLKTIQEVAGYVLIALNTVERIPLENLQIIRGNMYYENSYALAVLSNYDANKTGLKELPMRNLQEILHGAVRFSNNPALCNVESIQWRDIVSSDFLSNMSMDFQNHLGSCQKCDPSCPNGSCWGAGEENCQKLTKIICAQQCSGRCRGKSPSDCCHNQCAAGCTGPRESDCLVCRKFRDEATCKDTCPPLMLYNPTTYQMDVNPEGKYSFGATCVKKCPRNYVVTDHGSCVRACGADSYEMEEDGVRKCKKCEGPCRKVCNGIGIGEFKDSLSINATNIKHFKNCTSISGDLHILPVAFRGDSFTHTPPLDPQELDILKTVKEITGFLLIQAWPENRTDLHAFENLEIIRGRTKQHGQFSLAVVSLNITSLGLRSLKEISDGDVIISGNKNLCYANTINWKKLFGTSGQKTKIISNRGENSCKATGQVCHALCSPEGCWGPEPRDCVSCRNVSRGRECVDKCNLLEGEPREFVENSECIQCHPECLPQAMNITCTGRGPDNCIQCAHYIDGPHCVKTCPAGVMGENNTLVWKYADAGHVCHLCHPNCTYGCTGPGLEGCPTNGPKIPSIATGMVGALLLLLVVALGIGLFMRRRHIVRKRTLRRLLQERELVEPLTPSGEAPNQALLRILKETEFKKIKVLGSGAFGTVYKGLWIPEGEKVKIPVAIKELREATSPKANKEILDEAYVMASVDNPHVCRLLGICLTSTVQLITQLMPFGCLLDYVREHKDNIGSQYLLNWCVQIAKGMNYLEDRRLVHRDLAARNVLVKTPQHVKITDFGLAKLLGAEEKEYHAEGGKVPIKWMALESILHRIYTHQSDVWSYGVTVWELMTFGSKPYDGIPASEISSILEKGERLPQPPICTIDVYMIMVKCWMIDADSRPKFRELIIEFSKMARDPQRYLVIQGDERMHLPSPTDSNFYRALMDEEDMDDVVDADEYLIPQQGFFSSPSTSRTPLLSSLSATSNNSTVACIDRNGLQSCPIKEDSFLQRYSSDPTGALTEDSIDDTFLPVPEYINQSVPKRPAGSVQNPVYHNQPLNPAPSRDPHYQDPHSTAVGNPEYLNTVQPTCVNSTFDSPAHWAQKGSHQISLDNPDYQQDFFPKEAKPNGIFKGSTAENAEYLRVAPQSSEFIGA
Description: 9. […] After 15 min treatment, cells were lysed and immunoblotted with anti-phospho ERK1/2 and antiERK1/2 antibodies. […] EGFR was immunoprecipitated from the cell lysates, and their phosphotyrosine level was determined by anti-phosphotyrosine antibody. All the results were visualized using enhanced chemiluminescence.

[3] = system: cyclin D1 promoter (−1745D1-Luc); experiment: Cyclin D1 promoter luciferase reporter assay in DU145 cells; format: cell-based, human; details: 10^−6 M HF or 30 ng/ml EGF
Description: as §1
197. DU145 cells were obtained from American Type Culture Collection and cultured in Dubecco's modified Eagles's medium (DMEM) supplemented with 10% fetal bovine serum (FBS). Cells (1×10^5) were seeded in 35 mm plates and transfected with the SuperFect transfection reagent (Qiagen, Chatworth, Calif.). After 4 hours the media were changed to serum-free DMEM media for 24 hours. Thereafter, the cells were treated with HF, EGF, and vehicle for 18 hours and then lysed for luciferase assay. Luciferase activity was normalized for taansfection efficiency using pRL-TK as an internal control. Luciferase assays were performed using dual-luciferase reporter system (Promega, Madison, Wis.).

SMILES: CC(C)(O)C(=O)Nc1ccc([N+](=O)[O-])c(C(F)(F)F)c1 [HF, hydroxyflutamide]
- cyclin D1 expression (cyclin D1; HF (1 μM) or EGF (10 ng/ml) for 12 hours after serum starvation): induced
- other cell cycle related gene products (p27, p21, Ki67, PCNA) (cyclin D1; after HF- or EGF-treatment): no significant change
- MAP kinase activation [1]: not
- Raf detected in the Ras immunocomplex [2]: detected
- autophosphorylation of EGFR (EGFR): causes the autophosphorylation of EGFR
- induction of cyclin D1 promoter (−1745D1-Luc) activity [3]: about 2 fold
